Experimental findings from patent US6710048B2, “Pyrazine derivatives as modulators of tyrosine kinases” (Ortho-McNeil Pharmaceutical, Inc., priority 2000, dated 2004) are described below.

The first test concerns rat aortic ring. The test can be described thus: Rat aortic ring assay (vascular sprouting). Type of test: cell-based. Particulars: 192 h; rat aortic ring in fibrin gel, analyzed on day 8; read-out: Inhibition of Vascular Sprouting (IC50μM). The procedure: The rat aortic ring assay is a rapid in vitro assay that measures new capillary growth in an environment that closely approximates the in vivo conditions of the extracellular matrix. The assay was performed as described (Nicosia, R F and Ottinetti, A. Growth of new microvessels in serum-free matrix culture of rat aorta. Lab Invest., 63: 115-122, 1990). Thoracic aortas were removed from 1 to 2-month old male Sprague-Dawley rats and transferred to a culture dish containing serum-free MCDB 131 medium (Clonetics). Extraneous tissue was removed and the aorta was sectioned into rings approximately 1 mm long and rinsed 8-10 times in serum-free medium. A solution of sterile 1.5% agarose (Type VI-A, Sigma, St. Louis, Mo.) was added to the wells of a 6-well plate. The wells were filled with clotting fibrinogen solution and an aortic ring was transferred into the well positioned with the lumen oriented horizontally in the center of the fibrin gel solution. The fibrinogen solution was prepared in MCDB 131 medium with bovine fibrinogen at 3 mg/ml. Clotting was initiated by adding 20 μl of a 50 NIH units/ml bovine thrombin solution and the fibrin gel generally formed within 30 seconds. The fibrinolytic inhibitor amino-n-caproic acid was added to the culture medium at 300 µg/ml (microgram per milliliter) for the first four days of the assay and at 50 μg/ml from day 5 to day 8. Once the fibrin gel solution solidified, 5 ml of serum-free MCDB 131 media containing 100 μg/ml penicillin, 100 μg/ml streptomycin and 0.25 μg/ml amphotericin B was added to each well. Explants were incubated at 37° C. with 5% CO2 for 8 days. Medium was replaced every 2-3 days and the assay was analyzed on day 8. Inhibition of vascular sprouting was measured by adding test compounds diluted in DMSO.
With `CN(C)CCCNc1cncc(-c2cncc(Nc3cccc(Cl)c3)n2)c1` [Cmd 35, N^1-[5-[6-[(3-chlorophenyl)amino]pyrazinyl]-3-pyridinyl]-N^3,N^3-dimethyl-1,3-propanediamine], the IC50 was greater than 1 µM.
On to `OCCCCNc1cncc(-c2cncc(Nc3cccc(Cl)c3)n2)c1` [Cmd 32, 4-[[5-[6-[(3-chlorophenyl)amino]pyrazinyl]-3-pyridinyl]amino]-1-butanol], for which the IC50 amounted to 0.83 µM.
On the same count and under the same terms, to `OCCCNc1cncc(-c2cncc(Nc3cccc(Cl)c3)n2)c1` [Cmd 4, 3-[[5-[6-[(3-chlorophenyl)amino]pyrazinyl]-3-pyridinyl]amino]-1-propanol] belongs 0.099 µM.

A further test concerns MDA-MB-231. The test can be described thus: Cell proliferation assay (14C-thymidine incorporation), MDA-MB-231. Type of test: cell-based. To be noted: Homo sapiens, read-out: Inhibition of cell proliferation IC50. As to the method: (§1) The ability of a test compound to inhibit the proliferation of cell growth was determined by measuring incorporation of ^14C-labelled thymidine into newly synthesized DNA within the cells. This method was used on cell lines derived from carcinomas originating from several tissues such as HeLa cervical adenocarcinoma (American Type Culture Collection (ATCC), Virginia, Cat. #CCL-2), A375 malignant melanoma (ATCC CRL-1619), SK-OV-3 ovarian adenocarcinoma (ATCC HTB-77) HCT-116 colon carcinoma (CCL-247) and PC-3 prostate adenocarcinoma (ATCC CRL-1435). The method was also used on primary cells such as HUVEC endothelial cells (ATCC CRL-1730). In this way the effect of a compound on cell growth of cells with many different phenotypes can be determined. Cells were trypsinized and counted and 3000-8000 cells were added to each well of a 96-well CytoStar tissue culture treated scintillating microplate (Amersham #RPNQ0160) in complete medium in a volume of 100 μl. Cells were incubated for 24 hours in complete medium at 37° C. in an atmosphere containing 5% CO2.
(§2) Next, 1 μl of test compound in 100% DMSO was added to the wells of the plate. DMSO only was added to control wells. Cells were incubated for 24 more hours in complete medium at 37° C. in an atmosphere containing 5% CO2. Methyl ^14C-thymidine 56 mCi/mmol (NEN #NEC568 or Amersham #CFA532) was diluted in complete medium and 0.2 μCi/well was added to each well of the CytoStar plate in a volume of 20 μl. The plate was incubated for 24 hours at 37° C. plus 5% CO2 in drug plus ^14C-thymidine. The contents of the plate were discarded into a ^14C radioactive waste container by inverting the plate and the plate was washed twice with 200 μl PBS. 200 μl of PBS is then added to each well. The top of the plate was sealed with a transparent plate sealer and a white plate backing sealer (Packard #6005199) was applied to the bottom of the plate. The degree of Methyl ^14C-thymidine incorporation was quantified on a Packard Top Count.
(In general: Dividing cells build labelled thymidine or BrdU into new DNA.)
Regarding `CN(C)CCCNc1cncc(-c2cncc(Nc3cccc(Cl)c3)n2)c1` [Cmd 35, N^1-[5-[6-[(3-chlorophenyl)amino]pyrazinyl]-3-pyridinyl]-N^3,N^3-dimethyl-1,3-propanediamine], the IC50 was determined as 98.3 µM.
On to `OCCCCNc1cncc(-c2cncc(Nc3cccc(Cl)c3)n2)c1` [Cmd 32, 4-[[5-[6-[(3-chlorophenyl)amino]pyrazinyl]-3-pyridinyl]amino]-1-butanol], for which the IC50 amounted to 27.6 µM.
With `OCCCNc1cncc(-c2cncc(Nc3cccc(Cl)c3)n2)c1` [Cmd 4, 3-[[5-[6-[(3-chlorophenyl)amino]pyrazinyl]-3-pyridinyl]amino]-1-propanol], the IC50 is 3.26 µM.

Another test relates to SK-OV-3 ovarian adenocarcinoma. As to the kind of experiment: Cell proliferation assay (14C-thymidine incorporation), SK-OV-3. Type of test: cell-based. Particulars: Homo sapiens, read-out: Inhibition of cell proliferation IC50. The procedure:
as §1, §2
As to `CN(C)CCCNc1cncc(-c2cncc(Nc3cccc(Cl)c3)n2)c1` [Cmd 35, N^1-[5-[6-[(3-chlorophenyl)amino]pyrazinyl]-3-pyridinyl]-N^3,N^3-dimethyl-1,3-propanediamine], the IC50 stood at 19.3 µM.
As for `OCCCCNc1cncc(-c2cncc(Nc3cccc(Cl)c3)n2)c1` [Cmd 32, 4-[[5-[6-[(3-chlorophenyl)amino]pyrazinyl]-3-pyridinyl]amino]-1-butanol], the IC50 was found to be 14.6 µM.
Regarding `OCCCNc1cncc(-c2cncc(Nc3cccc(Cl)c3)n2)c1` [Cmd 4, 3-[[5-[6-[(3-chlorophenyl)amino]pyrazinyl]-3-pyridinyl]amino]-1-propanol], the IC50 came out at 3 µM.

A further test relates to HeLa cervical adenocarcinoma. As to the kind of experiment: Cell proliferation assay (14C-thymidine incorporation), HeLa. In kind it is cell-based. To be noted: Homo sapiens, read-out: Inhibition of cell proliferation IC50. The procedure:
as §1, §2
Turning to `CN(C)CCCNc1cncc(-c2cncc(Nc3cccc(Cl)c3)n2)c1` [Cmd 35, N^1-[5-[6-[(3-chlorophenyl)amino]pyrazinyl]-3-pyridinyl]-N^3,N^3-dimethyl-1,3-propanediamine], the IC50 was greater than 100 µM.
For `OCCCCNc1cncc(-c2cncc(Nc3cccc(Cl)c3)n2)c1` [Cmd 32, 4-[[5-[6-[(3-chlorophenyl)amino]pyrazinyl]-3-pyridinyl]amino]-1-butanol], the IC50 was found to be 86.4 µM.
Same read-out and setting: to `OCCCNc1cncc(-c2cncc(Nc3cccc(Cl)c3)n2)c1` [Cmd 4, 3-[[5-[6-[(3-chlorophenyl)amino]pyrazinyl]-3-pyridinyl]amino]-1-propanol] belongs 4.56 µM.

For a further test, the system named is PC-3 prostate adenocarcinoma. As to the kind of experiment: Cell proliferation assay (14C-thymidine incorporation), PC-3. Type of test: cell-based. To be noted: Homo sapiens, read-out: Inhibition of cell proliferation IC50. The procedure: as §1, §2
For `CN(C)CCCNc1cncc(-c2cncc(Nc3cccc(Cl)c3)n2)c1` [Cmd 35, N^1-[5-[6-[(3-chlorophenyl)amino]pyrazinyl]-3-pyridinyl]-N^3,N^3-dimethyl-1,3-propanediamine], the IC50 is greater than 100 µM.
Regarding `OCCCCNc1cncc(-c2cncc(Nc3cccc(Cl)c3)n2)c1` [Cmd 32, 4-[[5-[6-[(3-chlorophenyl)amino]pyrazinyl]-3-pyridinyl]amino]-1-butanol], the IC50 was found to be 67.6 µM.
On the same count and under the same terms, as for `OCCCNc1cncc(-c2cncc(Nc3cccc(Cl)c3)n2)c1` [Cmd 4, 3-[[5-[6-[(3-chlorophenyl)amino]pyrazinyl]-3-pyridinyl]amino]-1-propanol], the figure is 11.3 µM.

A further test concerns HCT-116 colon carcinoma. The test can be described thus: Cell proliferation assay (14C-thymidine incorporation), HCT-116. In kind it is cell-based. To be noted: Homo sapiens, read-out: Inhibition of cell proliferation IC50. As to the method:
as §1, §2
Take `CN(C)CCCNc1cncc(-c2cncc(Nc3cccc(Cl)c3)n2)c1` [Cmd 35, N^1-[5-[6-[(3-chlorophenyl)amino]pyrazinyl]-3-pyridinyl]-N^3,N^3-dimethyl-1,3-propanediamine]: the IC50 was greater than 100 µM.
For the molecule `OCCCCNc1cncc(-c2cncc(Nc3cccc(Cl)c3)n2)c1` [Cmd 32, 4-[[5-[6-[(3-chlorophenyl)amino]pyrazinyl]-3-pyridinyl]amino]-1-butanol], the IC50 worked out at 23.5 µM.
In the case of `OCCCNc1cncc(-c2cncc(Nc3cccc(Cl)c3)n2)c1` [Cmd 4, 3-[[5-[6-[(3-chlorophenyl)amino]pyrazinyl]-3-pyridinyl]amino]-1-propanol], the IC50 was 8.35 µM.
